Laboratory results: article PMC8645336, “Benchmarking a highly selective USP30 inhibitor for enhancement of mitophagy and pexophagy” (Life Science Alliance, 2021)

Columns and labels:
Assay in all cases: biochemical
Set-up in all cases: Ubiquigent DUB profiler selectivity panel, remaining enzyme activity as % of control
Settings in all cases: read-out: % of control remaining
JOSD2 = biological target: T1, JOSD2 (Homo sapiens, UniProt Q8TAC2)
T1 sequence (Q8TAC2 1-188): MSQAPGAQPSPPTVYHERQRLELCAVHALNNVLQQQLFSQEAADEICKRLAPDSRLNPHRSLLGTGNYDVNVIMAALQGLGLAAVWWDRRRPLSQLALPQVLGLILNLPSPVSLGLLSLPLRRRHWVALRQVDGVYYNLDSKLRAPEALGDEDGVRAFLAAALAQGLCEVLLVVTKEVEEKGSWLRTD
In short: (§1)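 CMPD-39 selectivity was profiled at 1-100 μM across >40 DUBs. Cellular engagement used 2 h CMPD-39 pretreatment, then HA-Ub-PA probe for 10 min at 37°C, with USP30 band shift on immunoblot. TOMM20 ubiquitylation was blotted in YFP-PRKN hTERT-RPE1 cells after 1 h antimycin A/oligomycin A (1 μM each).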

USP46/UAF1/WDR20 = USP46/UAF1/WDR20 (Homo sapiens, UniProt P62068)
In short: as §1

Ataxin3 = biological target: T2, Ataxin3 (Homo sapiens, UniProt P54252)
T2 construct: gene ATXN3
In short: as §1

USP45 = biological target: T3, USP45 (Homo sapiens, UniProt Q70EL2)
T3 sequence (Q70EL2 1-814): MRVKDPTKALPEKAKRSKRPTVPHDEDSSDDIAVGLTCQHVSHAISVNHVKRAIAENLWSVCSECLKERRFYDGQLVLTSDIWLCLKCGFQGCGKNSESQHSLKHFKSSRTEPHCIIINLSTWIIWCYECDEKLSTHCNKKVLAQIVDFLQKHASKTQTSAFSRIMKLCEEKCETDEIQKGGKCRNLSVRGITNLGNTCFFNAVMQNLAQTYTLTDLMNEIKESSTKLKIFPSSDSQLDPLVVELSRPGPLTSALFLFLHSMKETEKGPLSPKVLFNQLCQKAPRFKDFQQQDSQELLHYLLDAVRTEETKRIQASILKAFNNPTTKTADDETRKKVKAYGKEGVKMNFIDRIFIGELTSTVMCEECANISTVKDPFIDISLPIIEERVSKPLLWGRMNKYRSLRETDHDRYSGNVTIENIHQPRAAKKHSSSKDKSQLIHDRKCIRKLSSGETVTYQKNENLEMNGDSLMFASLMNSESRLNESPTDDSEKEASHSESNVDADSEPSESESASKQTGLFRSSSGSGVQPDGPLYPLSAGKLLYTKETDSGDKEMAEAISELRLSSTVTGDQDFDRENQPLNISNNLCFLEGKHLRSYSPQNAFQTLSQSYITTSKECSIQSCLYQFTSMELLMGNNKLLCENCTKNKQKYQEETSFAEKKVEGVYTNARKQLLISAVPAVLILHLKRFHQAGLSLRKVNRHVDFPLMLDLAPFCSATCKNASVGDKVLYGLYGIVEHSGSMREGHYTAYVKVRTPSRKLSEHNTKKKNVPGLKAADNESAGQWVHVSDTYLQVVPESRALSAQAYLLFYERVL
In short: as §1

T2 sequence (P54252 whole entry): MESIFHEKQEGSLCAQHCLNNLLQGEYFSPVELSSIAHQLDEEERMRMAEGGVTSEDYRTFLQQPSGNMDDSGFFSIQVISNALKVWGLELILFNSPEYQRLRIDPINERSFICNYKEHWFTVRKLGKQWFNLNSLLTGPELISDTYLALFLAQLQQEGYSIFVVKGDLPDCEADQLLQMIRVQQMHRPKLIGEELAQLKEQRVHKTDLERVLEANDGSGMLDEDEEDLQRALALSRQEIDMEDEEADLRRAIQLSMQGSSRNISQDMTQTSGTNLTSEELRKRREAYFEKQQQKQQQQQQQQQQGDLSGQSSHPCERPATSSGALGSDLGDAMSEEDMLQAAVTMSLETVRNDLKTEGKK
Chain of USP46/UAF1/WDR20 (P62068 whole entry): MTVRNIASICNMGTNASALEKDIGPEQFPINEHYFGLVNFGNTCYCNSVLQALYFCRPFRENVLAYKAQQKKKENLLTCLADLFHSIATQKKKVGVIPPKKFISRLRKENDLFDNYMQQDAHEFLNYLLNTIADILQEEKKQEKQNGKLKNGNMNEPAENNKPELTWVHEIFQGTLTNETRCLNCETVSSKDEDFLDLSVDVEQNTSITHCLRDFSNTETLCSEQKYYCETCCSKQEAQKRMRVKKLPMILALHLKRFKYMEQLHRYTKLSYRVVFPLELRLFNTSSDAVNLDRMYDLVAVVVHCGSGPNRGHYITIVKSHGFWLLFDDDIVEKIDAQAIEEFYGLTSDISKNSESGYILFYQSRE
Chain of USP46/UAF1/WDR20 (Q8TAF3 whole entry partner): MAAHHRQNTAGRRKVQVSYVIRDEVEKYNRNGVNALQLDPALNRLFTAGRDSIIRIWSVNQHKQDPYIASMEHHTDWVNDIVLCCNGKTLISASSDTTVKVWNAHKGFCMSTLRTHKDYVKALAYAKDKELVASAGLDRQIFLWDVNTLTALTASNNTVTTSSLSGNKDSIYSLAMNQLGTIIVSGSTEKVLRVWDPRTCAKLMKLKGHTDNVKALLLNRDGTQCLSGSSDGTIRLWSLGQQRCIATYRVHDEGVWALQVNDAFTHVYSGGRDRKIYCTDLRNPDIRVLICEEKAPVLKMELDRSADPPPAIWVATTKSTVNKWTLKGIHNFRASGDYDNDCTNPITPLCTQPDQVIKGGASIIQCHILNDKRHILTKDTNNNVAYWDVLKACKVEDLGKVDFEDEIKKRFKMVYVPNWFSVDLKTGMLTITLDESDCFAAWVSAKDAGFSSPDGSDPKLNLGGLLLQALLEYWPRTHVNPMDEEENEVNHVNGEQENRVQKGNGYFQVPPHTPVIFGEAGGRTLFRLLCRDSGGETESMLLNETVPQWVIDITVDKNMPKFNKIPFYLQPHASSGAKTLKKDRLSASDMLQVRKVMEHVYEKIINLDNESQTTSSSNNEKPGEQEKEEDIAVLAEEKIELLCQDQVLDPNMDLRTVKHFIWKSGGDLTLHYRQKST
Chain of USP46/UAF1/WDR20 (Q8TBZ3 whole entry partner): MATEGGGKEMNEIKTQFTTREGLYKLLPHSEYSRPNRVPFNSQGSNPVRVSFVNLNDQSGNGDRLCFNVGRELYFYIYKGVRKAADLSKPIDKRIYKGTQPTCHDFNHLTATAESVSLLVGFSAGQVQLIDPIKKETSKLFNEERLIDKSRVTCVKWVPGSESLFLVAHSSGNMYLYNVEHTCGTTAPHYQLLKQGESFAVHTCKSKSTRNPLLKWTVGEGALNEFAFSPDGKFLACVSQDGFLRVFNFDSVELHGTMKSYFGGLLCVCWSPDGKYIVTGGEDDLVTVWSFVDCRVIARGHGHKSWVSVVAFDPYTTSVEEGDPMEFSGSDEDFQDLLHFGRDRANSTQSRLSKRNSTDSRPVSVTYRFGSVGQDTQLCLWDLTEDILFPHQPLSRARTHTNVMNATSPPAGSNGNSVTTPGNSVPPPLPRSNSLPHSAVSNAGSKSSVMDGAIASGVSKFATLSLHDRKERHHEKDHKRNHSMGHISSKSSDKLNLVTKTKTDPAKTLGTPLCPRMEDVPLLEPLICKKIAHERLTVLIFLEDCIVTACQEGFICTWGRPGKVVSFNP

For `CC(C)(C)NS(=O)(=O)c1ccc(NC(=O)[C@H](Cc2ccccc2)NC(=O)c2ccc(F)cc2)cc1` [compound 39, CMPD-39], the remaining activity at 1 µM (JOSD2) was 105%, the remaining activity at 10 µM (JOSD2) was 90.8% and the remaining activity at 100 µM (JOSD2) was 94.3%. For the same compound, the remaining activity at 1 µM (USP46/UAF1/WDR20) was 110%, the remaining activity at 10 µM (USP46/UAF1/WDR20) was 97.5% and the remaining activity at 100 µM (USP46/UAF1/WDR20) was 97.4%. The remaining activity at 1 µM (Ataxin3) was 102%, the remaining activity at 10 µM (Ataxin3) was 102% and the remaining activity at 100 µM (Ataxin3) was 101%. It also gave a remaining activity at 1 µM (USP45) of 98.8%, a remaining activity at 10 µM (USP45) of 95% and a remaining activity at 100 µM (USP45) of 100%.
